{"source": "patent US5874461A", "about": "“Use of Nebivolol as an anti-atherogenic” (priority 1995, dated 1999)", "tested_on": "primary embryonic hippocampal cultures", "experiment": "In vitro neuroprotection against nitric oxide and superoxide radicals (inhibition of LDH release)", "assay_type": "cell-based, rats", "conditions": "for inhibition at 1 µM / inhibition at 0.1 µM: Rattus norvegicus, read-out: % neuroprotection, mean ± SD; for inhibition at 1 µM: 10^-6 M; for inhibition at 0.1 µM: 10^-7 M; for neuroprotection against DDTC or SNP: one or the other treatment paradigm", "method": "Primary embryonic hippocampal cultures were prepared essentially as described previously (Pauwels et al., Van Aschouw, H. P., Peeters, L., Moeremans, M., Leysen, J. E. (1992) Chronic treatment with sabeluzole protects cultured rat brain neurons from the neurotoxic effects of excitatory amino acids. Synapse, 12:271-280). Hippocampal formations of rats at embryonic day 17 were dissected and dissociated in 0.05% trypsin, 0.1 mg/ml DNase I in DMEM (Dulbecco Modified Eagle Medium). Heat-inactivated horse serum (HS) was added to a concentration of 4%, and the cells were centrifuged, washed with DMEM, and resuspended in DMEM/Ham's F12 (3:1) containing 10% HS. The cells were plated at a density of 4×10^5 cells/cm^2 in poly L-lysine (0.001%) precoated multiwell-24 plates. On day 1 in culture, the medium was changed to chemically defined CDM-R12 medium (DMEM-HEPES/Ham's F12 (3:1) containing 0.26% bovine serum albumin, 30 nM sodium selenite, 3 nM 3,3',5 triiodo-L-thyronine, 0.35 μM retinol, 0.3 μM retinol acetate, 2.3 μM DL-a-tocopherol, 2.1 μM DL-a-tocopherol acetate, 3.6 μM linolenic acid, 3.6 μM linoleic acid, 0.125% human transferrin, […], 57.7 nM corticosterone, 49 U/I insulin, 0.4 μM biotin, 10 μM L-carnitine, 83 μM D(+)-galactose, 3.3 μM glutathione, 10 μM ethanolamine, 0.1 mM putrescine; Romijn, H. J., van Huizen, F., Wolters, P. S. (1984) Towards an improved serum-free, chemically defined medium for long-term culturing of cerebral cortex tissue. Neurosci. Behav. Rev., 8:301-334). Acute and prolonged pretreatment of the, cultures was essentially as described previously (Pauwels et al., 1992). Drugs were dissolved, and diluted in 10% or 1% hydroxypropyl-β-cyclodextrin such that the final concentrations of the solvent in the acute and chronic exposures were 0.1% and 0.01% respectively. Compound A as used in the following examples is [(RRSR)+(RRRS)+(SSSR) +(SSRS)]-α-[[[2-(chroman-2-yl)-2-hydroxy-ethyl]amino]methyl]-6-hydroxy-2-chromanmethanol ethanedioate (1:1).\nFor acute treatment, drug, or solvent was added to the cultures on day 7. After 20 min the medium was replaced with 200 μl chemically defined DMEM medium (the same composition of CDM-R12 medium but without Ham's F12) (control), or chemically defined DMEM medium containing the oxidative stress trigger. Oxidative stress triggers used were 1 mM sodium nitroprusside (SNP, a nitric oxide radical generating compound), or 7.5-10 mM diethyldithiocarbamate (DDTC, a superoxide dismutase inhibitor) and the test compound.\nFor prolonged pretreatment experiments, drug (concentration range 0.1 nM-10 μM) was added to the serum-free medium on days 1 and 4 of the culture. On day 7, the cultures were washed once with DMEM, and incubated with 0.2 ml chemically defined DMEM medium for 2 h at 37° C. The cells were washed and the medium was replaced by 0.2 ml chemically defined DMEM medium (control), or chemically defined DMEM medium containing the oxidative stress trigger (se above).\nFor both the acute experiment and the prolonged pretreatment experiment, extracellular and intracellular LDH (lactate dehydrogenase) activities were measured spectrophotometrically at 340 nm with an EPOS Analyzer 5060, according to the method of Bergmeyer (Bergmeyer, H. U. (1974) Biochemical reagents. In: Methods of Enzymatic Analysis. H. U. Bergmeyer, eds. Academic Press, New York, 2nd Ed., pp. […]). Extracellular LDH activity in the culture medium and cytoplasmic LDH activity measured after lysis of the cells in 1 ml H2 O, were used to calculate total LDH activity and % released LDH. % Neuroprotection refers to % inhibition of LDH release, where oxidative stress trigger-induced LDH release is defined as 0% protection, and basal (control) level of LDH release is defined as 100% protection.\nNeuronal primary hippocampal cultures were grown in CDM-R12 medium for 7 days. Test compounds were either administered on days 1 and 4 of culture (prolonged pretreatment) or on day 7 of culture (acute treament). […]", "key": {"[1]": {"conditions": "DDTC trigger, prolonged pretreatment"}, "[2]": {"conditions": "SNP trigger, prolonged pretreatment"}}, "note": "Read-outs that look alike come from different tables or passages of the source.", "data": [{"smiles": "O[C@H](CNC[C@@H](O)[C@H]1CCc2cc(F)ccc2O1)[C@@H]1CCc2cc(F)ccc2O1", "note": "(relative stereo) [nebivolol, (RSSS) and (SRRR) α,α'-iminobis(methylene)bis[6-fluoro-2-chroman-methanol]]", "values": [{"measurement": "inhibition at 1 µM", "setting": "DDTC trigger, acute treatment", "value": "29 ± 16", "unit": "%"}, {"measurement": "inhibition at 0.1 µM", "setting": "DDTC trigger, acute treatment", "value": "32 ± 28", "unit": "%"}, {"measurement": "inhibition at 1 µM", "setting": "[1]", "value": "37 ± 23", "unit": "%"}, {"measurement": "inhibition at 0.1 µM", "setting": "[1]", "value": "< 25", "unit": "%"}, {"measurement": "inhibition at 1 µM", "setting": "SNP trigger, acute treatment", "value": "< 25", "unit": "%"}, {"measurement": "inhibition at 0.1 µM", "setting": "SNP trigger, acute treatment", "value": "< 25", "unit": "%"}, {"measurement": "inhibition at 1 µM", "setting": "[2]", "value": "36 ± 18", "unit": "%"}, {"measurement": "inhibition at 0.1 µM", "setting": "[2]", "value": "26 ± 13", "unit": "%"}, {"measurement": "neuroprotection against DDTC or SNP", "value": "can confer neuroprotection"}]}, {"smiles": "Oc1ccc2c(c1)CCC(C(O)CNCC(O)C1CCc3ccccc3O1)O2", "note": "(stereo not drawn) [Compound A, [(RRSR)+(RRRS)+(SSSR) +(SSRS)]-α-[[[2-(chroman-2-yl)-2-hydroxy-ethyl]amino]methyl]-6-hydroxy-2-chromanmethanol ethanedioate (1:1)]", "values": [{"measurement": "inhibition at 1 µM", "setting": "DDTC trigger, acute treatment", "value": "30 ± 28", "unit": "%"}, {"measurement": "inhibition at 0.1 µM", "setting": "DDTC trigger, acute treatment", "value": "35 ± 32", "unit": "%"}, {"measurement": "inhibition at 1 µM", "setting": "[1]", "value": "< 25", "unit": "%"}, {"measurement": "inhibition at 0.1 µM", "setting": "[1]", "value": "< 25", "unit": "%"}, {"measurement": "inhibition at 1 µM", "setting": "SNP trigger, acute treatment", "value": "< 25", "unit": "%"}, {"measurement": "inhibition at 0.1 µM", "setting": "SNP trigger, acute treatment", "value": "< 25", "unit": "%"}, {"measurement": "inhibition at 1 µM", "setting": "[2]", "value": 38, "unit": "%"}, {"measurement": "inhibition at 0.1 µM", "setting": "[2]", "value": "39 ± 13", "unit": "%"}, {"measurement": "neuroprotection against DDTC or SNP", "value": "can confer neuroprotection"}]}]}
